Here are results for seven molecules from DBAASP.

Converted amounts (≈) assume the structure as drawn. “And” between values parts separate entries of the source, which are not always exact repeats. Equal entries are not always repeated.

Common to all, as to assay: ≥ marks a high value that may be exact or a test limit, other limits are often not marked, values filed in µg/mL are converted to µM
The test system of experiment [1] is Pseudomonas aeruginosa ATCC 27853.
Experiment [2] has as its system Pseudomonas aeruginosa PAO1.
Experiment [3] concerns Staphylococcus aureus ATCC 25923.
For experiment [4], the system named is Staphylococcus aureus ATCC 43300.
In experiment [5] the test system is Pseudomonas aeruginosa ATCC 9027.
Experiment [6] relates to Staphylococcus aureus ATCC 6538.
Experiment [7] has as its system Escherichia coli ATCC 25922.

Usually MIC stands for the smallest concentration in the dilution series that meets the test's criterion for growth inhibition. Take `CC[C@H](C)[C@H](NC(=O)[C@H](CCCCN)NC(=O)[C@H](Cc1cnc[nH]1)NC(=O)[C@H](CC(N)=O)NC(=O)[C@H](Cc1c[nH]c2ccccc12)NC(=O)CNC(=O)[C@H](C)NC(=O)[C@H](CO)NC(=O)[C@@H](NC(=O)[C@@H](NC(=O)[C@@H](N)CS)C(C)C)[C@@H](C)CC)C(=O)N[C@@H](CCCN=C(N)N)C(=O)N[C@H]1CSSC[C@@H](C(=O)O)NC(=O)[C@H](CC(N)=O)NC(=O)CNC(=O)[C@H]([C@@H](C)O)NC(=O)[C@H](CC(C)C)NC(=O)[C@H](CCCCN)NC1=O` [CVISAGWNHKIRCKLTGNC]: the MIC in experiment [1] worked out at 11.9 µM (≈ 25 µg/mL); in experiment [2], 11.9 µM (≈ 25 µg/mL); in experiment [3], 23.8 µM (≈ 50 µg/mL); in experiment [4], 23.8 µM (≈ 50 µg/mL).

As for `CC(C)C[C@H](NC(=O)[C@H](C)NC(=O)[C@H](CCCCN)NC(=O)[C@H](CCCCN)NC(=O)[C@H](CC(C)C)NC(=O)[C@H](Cc1ccccc1)NC(=O)[C@H](CCCCN)NC(=O)[C@H](C)NC(=O)[C@H](CC(C)C)NC(=O)[C@H](Cc1ccccc1)NC(=O)[C@H](CCCCN)NC(=O)[C@H](C)NC(=O)[C@@H](N)Cc1ccccc1)C(N)=O` [FAKFLAKFLKKAL], the minimum inhibitory concentration (MIC) was found to be 65.6 µM (≈ 99.9 µg/mL) in experiment [5] and 3.28 µM (≈ 5 µg/mL) in experiment [6].

On to `CC[C@H](C)[C@H](NC(=O)[C@H](CC(C)C)NC(=O)[C@H](CCCCN)NC(=O)[C@H](CCCCN)NC(=O)[C@H](C)NC(=O)[C@H](CC(C)C)NC(=O)[C@H](CCCCN)NC(=O)[C@H](CCCCN)NC(=O)[C@H](CC(C)C)NC(=O)[C@H](CCCCN)NC(=O)[C@H](CCCCN)NC(=O)[C@H](C)NC(=O)[C@H](CC(C)C)NC(=O)[C@H](CCCCN)NC(=O)[C@H](CCCCN)NC(=O)[C@H](C)NC(=O)[C@@H](N)Cc1ccccc1)C(=O)NCC(=O)N[C@@H](C)C(=O)N[C@H](C(=O)N[C@@H](CC(C)C)C(=O)N[C@@H](CCCCN)C(=O)N[C@H](C(=O)O)C(C)C)C(C)C` [FAKKLAKKLKKLAKKLIGAVLKV], for which the minimum inhibitory concentration (MIC) in experiment [5] was over 78.8 µM; in experiment [6], 39.4 µM (≈ 100 µg/mL).

Regarding `CC(C)C[C@H](NC(=O)[C@H](C)NC(=O)[C@H](CCCCN)NC(=O)[C@H](CCCCN)NC(=O)[C@H](CC(C)C)NC(=O)[C@H](C)NC(=O)[C@H](CCCCN)NC(=O)[C@H](C)NC(=O)[C@H](CC(C)C)NC(=O)[C@H](CC(C)C)NC(=O)[C@H](CCCCN)NC(=O)[C@H](C)NC(=O)[C@@H](N)Cc1ccccc1)C(N)=O` [FAKLLAKALKKAL], the figures for the MIC in experiment [5] and in experiment [6] were 7.07 µM (≈ 9.99 µg/mL) and 3.53 µM (≈ 5 µg/mL), respectively.

As for `CC(C)C[C@H](NC(=O)CN)C(=O)N[C@@H](CC(C)C)C(=O)N[C@@H](CC(=O)O)C(=O)N[C@@H](CC(C)C)C(=O)N[C@@H](CC(C)C)C(=O)N[C@@H](CCCCN)C(=O)N[C@@H](CC(C)C)C(=O)N[C@@H](CC(C)C)C(=O)N[C@@H](CC(C)C)C(=O)N[C@@H](CCCCN)C(=O)N[C@@H](C)C(=O)N[C@@H](C)C(=O)NCC(=O)O` [GLLDLLKLLLKAAG], the MIC was 35 µM (≈ 50.3 µg/mL) in experiment [7], 66 µM (≈ 94.9 µg/mL) in experiment [2] and 10 µM (≈ 14.4 µg/mL) in experiment [3].

As to `CC(C)C[C@@H]1NC(=O)CNC(=O)[C@H]([C@@H](C)O)NC(=O)[C@@H]2CCCN2C(=O)[C@H](CC(C)C)NC(=O)CNC(=O)[C@H](CC(N)=O)NC(=O)[C@H](CC(N)=O)NC(=O)[C@H](Cc2ccc(O)cc2)NC(=O)[C@H](C(C)C)NC(=O)[C@H](CCCN=C(N)N)NC(=O)[C@@H](NC(=O)[C@H](CCCN=C(N)N)NC(=O)[C@H](Cc2cnc[nH]2)NC(=O)[C@H](CCCCN)NC(=O)[C@H](CCCCN)NC(=O)[C@H](CCCN=C(N)N)NC(=O)[C@@H](N)CCCCN)CSSC[C@@H](C(N)=O)NC(=O)[C@H](Cc2c[nH]c3ccccc23)NC(=O)[C@H](CCCN=C(N)N)NC(=O)[C@H](Cc2ccc(O)cc2)NC1=O` [KRKKHRCRVYNNGLPTGLYRWC], in experiment [6], the MIC is 1.1 µM (≈ 3.02 µg/mL).

In the case of `CC(C)C[C@H](NC(=O)[C@H](C)NC(=O)[C@H](Cc1c[nH]c2ccccc12)NC(=O)CNC(=O)[C@H](CCCN=C(N)N)NC(=O)[C@@H](N)CCCN=C(N)N)C(=O)N[C@@H](CCCN=C(N)N)C(=O)N[C@@H](CC(C)C)C(=O)N[C@H](C(=O)N[C@@H](CC(C)C)C(=O)N[C@@H](C)C(=O)N[C@@H](Cc1ccc(O)cc1)C(N)=O)C(C)C` [RRGWALRLVLAY], in experiment [2], the minimal inhibitory concentration (MIC) was 26 µM and 30 µM.
